Source: patent publication US20210386721A1, “SUBSTITUTED PHENYLPROPENYL PYRIDINE DERIVATIVES, THEIR PREPARATION AND PHARMACEUTICAL APPLICATIONS” (SHANGHAI HAIYAN PHARMACEUTICAL TECHNOLOGY CO., LTD., priority 2019, published 2021)

Target: T1, PD-1/PD-L1 (Homo sapiens, UniProt Q9NZQ7)
T1 construct: purchased Cisbio 63ADK000CPDPEB
Assay: PD-1/PD-L1 binding assay (HTRF, PPI-HTRF)
Details: HTRF PD1/PD-L1 binding assay kit; 10 nM Tag1-PD-L1; 25° C.
Description: Assay 1 PD-1/PD-L1 Binding Assay
DMSO is from Sigma, Cat No: D5879; 384-well small volume plate (white) is from Greiner, Cat No: 784075; Anti-PD1 blocking antibody (IC50: 10 nM) is from Cisbio, Cat No: 64CUS000C-1a; Anti-PDL1 blocking antibody (IC50: 0.3 nM) is from Cisbio, Cat No: 64CUS000C-1b; HTRF PD1/PD-L1 binding assay kit is from Cisbio, Cat No: 63ADK000CPDPEB.
1. Prepare the compound to be tested at 2x concentration into 1× reaction buffer containing 4% DMSO;
2. Tag1-PD-L1 protein and Tag2-PD1 protein were prepared in 1× reaction buffer at concentrations of […] and 10 nM, respectively. The final reaction concentration of the experiment was 10 nM Tag1-PD-L1 and 2 nM […];
3. anti-Tag1-Eu3+ antibody is prepared in 1x concentration detection buffer at a ratio of 1:100;
4. anti-Tag2-XL665 antibody is prepared in 1x concentration detection buffer at a ratio of 1:25; Experimental steps
1. 5 μL of compounds to be tested (2×) was added;
2. 2.5 ul Tag1-PD-L1 protein and 2.5 ul Tag2-PD1 protein were added respectively, and the total reaction system is 10 ul, and reacted at 25° C. for 15 minutes;
3. 5 ul anti-Tag1-Eu3+ antibody and 5 ul anti-Tag2-XL665 antibody were added respectively, and reacted at 25° C. for 16 hours;
4. The fluorescence microplate reader HTRF reading program was used to read two readings at 665 nm and 620 nm, the ratio of the two wavelengths was used to judge the activity of the compound, and the IC50 of the compound to be tested is calculated by XLFIT5.0 (IDBS).

T1 sequence (Q9NZQ7 19-238 limits assumed): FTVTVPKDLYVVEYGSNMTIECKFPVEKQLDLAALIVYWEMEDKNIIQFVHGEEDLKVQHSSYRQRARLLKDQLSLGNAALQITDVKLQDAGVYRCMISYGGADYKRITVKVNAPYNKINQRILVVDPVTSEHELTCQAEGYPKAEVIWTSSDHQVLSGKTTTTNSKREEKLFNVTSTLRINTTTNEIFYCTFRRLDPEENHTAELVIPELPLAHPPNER

SMILES	IC50 [nM]
COc1cc(/C=C/c2cccc(-c3cccc(-c4nc5cc(CN6CC[C@@H](C(=O)O)C6)cc(C#N)c5o4)c3F)c2C)c(C(F)(F)F)cc1CN1CC[C@@H](O)C1 [Z-28]	5
COc1cc(/C=C/c2cccc(-c3cccc(-c4nc5cc(CN6CC[C@@H](C(=O)O)C6)ccc5o4)c3C)c2C)c(C(F)(F)F)cc1CN1CC[C@H](O)C1 [Z-31]	2
COc1cc(/C=C/c2cccc(-c3cccc(-c4nc5cc(CN6CC[C@H](C(=O)O)C6)ccc5o4)c3C)c2C)c(C(F)(F)F)cc1CN1CC[C@H](O)C1 [Z-32]	2
COc1cc(/C=C/c2cccc(-c3cccc(-c4nc5cc(CN6CC[C@@H](O)C6)cc(C#N)c5o4)c3C)c2C)c(C(F)(F)F)cc1CN1CC[C@@H](O)C1 [Z-37]	1
COc1cc(/C=C/c2cccc(-c3cccc(-c4nc5cc(CN6CCC[C@H]6C(=O)O)cc(C#N)c5o4)c3C)c2C)c(C(F)(F)F)cc1CN1CC[C@@H](O)C1 [Z-39]	1
Cc1cc(/C=C/c2nccc(-c3cccc(-c4nc5cc(CN6CC[C@@H](O)C6)cc(Cl)c5o4)c3C)c2C#N)c(Cl)cc1CN1CC[C@@H](C(=O)O)C1 [Z-46]	1
Cc1cc(/C=C/c2nccc(-c3cccc(-c4nc5cc(CN6CC[C@@H](O)C6)ccc5o4)c3C)c2C#N)c(Cl)cc1CN1CC[C@@H](C(=O)O)C1 [Z-47]	1
Cc1cc(/C=C/c2nccc(-c3cccc(-c4nc5cc(CN6CC[C@@H](C(=O)O)C6)cc(Cl)c5o4)c3C)c2C#N)c(C(F)(F)F)cc1CN1CC[C@@H](O)C1 [Z-48]	2
COc1cc(/C=C/c2nccc(-c3cccc(-c4nc5cc(CN6CC[C@@H](C(=O)O)C6)cc(C#N)c5o4)c3C)c2C#N)c(C(F)(F)F)cc1CN1CC[C@@H](O)C1 [Z-50]	1
COc1cc(/C=C/c2cccc(-c3cccc(-c4nc(OC)c(CNC[C@@H]5CCC(=O)N5)cc4Cl)c3C)c2C)c(C(F)(F)F)cc1CN1CC[C@@H](C(=O)O)C1 [Z-55]	3
Cc1cc(/C=C/c2nccc(-c3cccc(-c4nc5c(s4)CN(C(=O)CN(C)C)CC5)c3C)c2C#N)c(Cl)cc1CN1CC[C@@H](C(=O)O)C1 [Z-61, (R,E)-1-(5-chloro-4-(2-(3-cyano-4-(3-(5-(dimethylglycyl)-4,5,6,7-tetrahydrothiazolo [5,4-c]pyridin-2-yl)-2-methylphenyl)pyridin-2-yl)vinyl)-2-methylbenzyl)pyrrolidine-3-carboxylic Acid]	2
COc1cc(/C=C/c2cccc(-c3cccc(OC4CCc5cc(CN6CC[C@@H](O)C6)ccc54)c3Cl)c2C)c(C(F)(F)F)cc1CN1CC[C@@H](C(=O)O)C1 (stereo partly drawn) [Z-62, (3R)-1-(4-((E)-2-(2′-chloro-3′-((5-(((R)-3-hydroxypyrrolidin-1-yl)methyl)-2,3-dihydro-1H-inden-1-yl)oxy)-2-methyl-[1,1′-biphenyl]-3-yl)vinyl)-2-methoxy-5-(trifluoromethyl)benzyl)pyrrolidine-3-carboxylic Acid]	3
Cc1c(NC(=O)c2ccc(CNCCO)cn2)cccc1-c1ccnc(/C=C/c2ccc3c(c2)CCN(CCO)C3)c1C#N [Z-63]	32
Cc1c(NC(=O)c2ccc(CN3CC[C@@H](O)C3)cn2)cccc1-c1ccnc(/C=C/c2cc3nc(CN4CC[C@H](C(=O)O)C4)oc3cc2Cl)c1C#N [Z-64]	18
Cc1cc(/C=C/c2nccc(-c3cccc(NC(=O)c4ccc(CN5CC[C@@H](O)C5)cn4)c3C)c2C)c(Cl)cc1CN1CC[C@@H](C(=O)O)C1 [Z-65]	< 1
Cc1cc(/C=C/c2nccc(-c3cccc(NC(=O)c4nc5c(n4C)CCN(C)C5)c3C)c2C#N)c(Cl)cc1CN1CCCC[C@H]1C(=O)O [Z-66, (S,E)-1-(5-chloro-4-(2-(3-cyano-4-(3-(1,5-dimethyl-4,5,6,7-tetrahydro-1H-imidazo[4,5-c]pyridine-2-carboxamido)-2-methylphenyl)pyridin-2-yl)vinyl)-2-methylbenzyl)piperidine-2-carboxylic Acid]	2
Cc1cc(/C=C/c2nccc(-c3cccc(NC(=O)c4ccc(CN5CC[C@@H](O)C5)cn4)c3C)c2C#N)c(Cl)cc1CN1CCC(C)(C(=O)O)C1 (stereo partly drawn) [Z-67, 1-(5-chloro-4-((E)-2-(3-cyano-4-(3-(5-(((R)-3-hydroxypyrrolidin-1-yl)methyl)picolinamido)-2-methylphenyl)pyridin-2-yl)vinyl)-2-methylbenzyl)-3-methylpyrrolidine-3-carboxylic Acid]	1

SMILES	IC50 [nM]
Cc1cc(/C=C/c2nccc(-c3cccc(NC(=O)c4ccc(CN5CC[C@@H](O)C5)cn4)c3C)c2C#N)c(Cl)cc1CN1CC[C@@H](C(=O)O)C1 [Z-68]	1
Cc1c(NC(=O)c2ccc(CN3CC[C@@H](O)C3)cn2)cccc1-c1ccnc(/C=C/c2ccc(CN3CC[C@@H](C(=O)O)C3)cn2)c1C#N [Z-69]	57
Cc1cc(/C=C/c2nccc(-c3cccc(NC(=O)c4ccc(CN5CCOCC5)cn4)c3C)c2C#N)c(Cl)cc1CN1CC[C@@H](C(=O)O)C1 [Z-70, (R,E)-1-(5-chloro-4-(2-(3-cyano-4-(2-methyl-3-(5-(morpholinomethyl)picolinamido)phenyl)pyridin-2-yl)vinyl)-2-methylbenzyl)pyrrolidine-3-carboxylic Acid]	3
Cc1cc(/C=C/c2nccc(-c3cccc(NC(=O)c4ccc(CN5CCOCC5)cn4)c3C)c2C#N)c(Cl)cc1CN1CCCC[C@H]1C(=O)O [Z-71]	5
Cc1cc(CN2CCCC[C@H]2C(=O)O)c(C)cc1/C=C/c1nccc(-c2cccc(NC(=O)c3ccc(CN4CC[C@@H](O)C4)cn3)c2C)c1C#N [Z-72]	2
Cc1cc(/C=C/c2nccc(-c3cccc(NC(=O)c4nc5c(n4C)CCN(C4CCOCC4)C5)c3C)c2C#N)c(Cl)cc1CN1CCCC[C@H]1C(=O)O [Z-73, (S, E)-1-(5-chloro-4-(2-(3-cyano-4-(2-methyl-3-(l-methyl-5-(tetrahydro-2H-pyran-4-yl)-4,5,6,7-tetrahydro-1H-imidazo[4,5-c]pyridine-2-carboxamido)phenyl)pyridin-2-yl)vinyl)-2-methylbenzyl) piperidine-2-carboxylic Acid]	2
COc1cc(/C=C/c2nccc(-c3cccc(NC(=O)c4ccc(CN5CC[C@@H](O)C5)cn4)c3C)c2C#N)cc(OC)c1CN1CCCC[C@H]1C(=O)O [Z-75]	36
Cc1cc(/C=C/c2nccc(-c3cccc(NC(=O)c4ccc(CN5CC[C@@H](O)C5)cn4)c3C)c2C#N)c(Cl)cc1CN1CC2(CC(C(=O)O)C2)C1 [Z-78, (R,E)-2-(5-chloro-4-(2-(3-cyano-4-(3-(5-((3-hydroxypyrrolidin-1-yl)methyl)picolinamido)-2-methylphenyl)pyridin-2-yl)vinyl)-2-methylbenzyl)-2-azaspiro[3.3]heptane-6-carboxylic Acid]	13
Cc1cc(/C=C/c2nccc(-c3cccc(NC(=O)c4ccc(CN5CC[C@@H](O)C5)cn4)c3C)c2C#N)c(C2CC2)cc1CN1CC[C@@H](C(=O)O)C1 [Z-79, (R)-1-(4-((E)-2-(3-cyano-4-(3-(5-(((R)-3-hydroxypyrrolidin-1-yl)methyl)picolinamido)-2-methylphenyl)pyridin-2-yl)vinyl)-5-cyclopropyl-2-methylbenzyl)pyrrolidine-3-carboxylic Acid]	1
Cc1cc(/C=C/c2cccc(-c3cccc(NC(=O)c4ccc(CN5CC[C@@H](O)C5)cn4)c3C)c2C(F)(F)F)c(Cl)cc1CN1CC[C@@H](C(=O)O)C1 [Z-88]	3
COc1cc(/C=C/c2cccc(-c3cccc(NC(=O)c4ccc(CN5CC[C@@H](O)C5)cn4)c3F)c2F)c(C(F)(F)F)cc1CN1CC[C@@H](C(=O)O)C1 [Z-100]	1
COc1cc(/C=C/c2cccc(-c3cccc(NC(=O)c4ccc(CN5CC[C@@H](O)C5)cn4)c3C#N)c2Cl)c(C(F)(F)F)cc1CN1CC[C@@H](C(=O)O)C1 [Z-104]	1
COc1cc(/C=C/c2cccc(-c3cccc(NC(=O)c4ccc(CN5CC[C@@H](O)C5)c(OC)n4)c3C)c2C)c(C(F)(F)F)cc1CN1CCC[C@H]1C(=O)O [Z-116]	3
COc1cc(/C=C/c2cccc(-c3cccc(NC(=O)c4ccc(CN5CC[C@@H](O)C5)cc4)c3C)c2C)c(C(F)(F)F)cc1CN1CC[C@@H](C(=O)O)C1 [Z-123]	1
COc1cc(/C=C/c2cccc(-c3cccc(NC(=O)c4nc5c(n4C)CCN(C)C5)c3C)c2C)c(C(F)(F)F)cc1CN1CC[C@@H](C(=O)O)C1 [Z-126, (R,E)-1-(4-(2-(3′-(1,5-dimethyl-4,5,6,7-tetrahydro-1H-imidazo[4,5-c]pyridine-2-carboxamido)-2,2′-dimethyl-[1,1′-biphenyl]-3-yl)vinyl)-2-methoxy-5-(trifluoromethyl)benzyl)pyrrolidine-3-carboxylic Acid]	1
COc1cc(C(=O)Nc2cccc(-c3cccc(/C=C/c4cc(C)c(CN5CC[C@@H](C(=O)O)C5)cc4C(F)(F)F)c3C)c2C)ncc1CN1CC[C@@H](O)C1 [Z-127]	1
